Calls of active or inactive are those of the source.
Experiments:
[1] = target: T1, Intestinal-type alkaline phosphatase (Mus musculus, UniProt P24822); assay: PubChem AID 488874; format: functional
[2] = target: T2, Intestinal-type alkaline phosphatase (Homo sapiens, UniProt P09923); assay: activation of human intestinal alkaline phosphatase – biochemical, luminescent, uHTS hits, set 2, dose response (AID 488817); format: functional;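 further: potency of activators that raise enzyme activity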
[3] = target: T3, Alkaline phosphatase, tissue-nonspecific isozyme (Homo sapiens, UniProt P05186); assay: activation of tissue-nonspecific alkaline phosphatase – biochemical, TNAP isozyme, human IAP uHTS hits, selectivity assay for human IAP activator project, dose response (AID 488886); format: functional;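 further: potency of compounds raising TNAP activity as a selectivity check on IAP activators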
T3 sequence (P05186 whole entry): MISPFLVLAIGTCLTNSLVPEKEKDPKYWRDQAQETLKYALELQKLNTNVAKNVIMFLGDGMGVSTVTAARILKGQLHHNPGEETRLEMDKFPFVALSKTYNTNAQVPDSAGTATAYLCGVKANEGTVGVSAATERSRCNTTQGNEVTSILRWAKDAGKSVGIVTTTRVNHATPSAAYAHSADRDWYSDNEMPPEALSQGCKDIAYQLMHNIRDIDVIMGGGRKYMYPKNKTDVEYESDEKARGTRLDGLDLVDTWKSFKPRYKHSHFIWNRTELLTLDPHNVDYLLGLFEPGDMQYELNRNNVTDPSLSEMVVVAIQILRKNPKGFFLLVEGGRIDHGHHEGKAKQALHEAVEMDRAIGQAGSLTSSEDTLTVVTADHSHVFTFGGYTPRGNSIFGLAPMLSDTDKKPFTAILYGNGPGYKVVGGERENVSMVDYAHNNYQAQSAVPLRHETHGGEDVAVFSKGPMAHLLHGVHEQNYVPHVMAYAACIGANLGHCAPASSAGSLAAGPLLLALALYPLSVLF

[4] = target: T2, Intestinal-type alkaline phosphatase; assay: human intestinal alkaline phosphatase activators, dose response, biochemical, luminescence, uHTS hits (AID 463120); format: functional
[5] = target: T4, Sphingosine 1-phosphate receptor 4 (Homo sapiens, UniProt O95977); assay: Fluorescence dose response cell-based high throughput screening assay for agonists of the Sphingosine 1-Phosphate Receptor 4 (S1P4). [Related pubchem assays: 1509 (Primary screen.), 1523 (Confirmation screen in triplicates.)]; format: functional
T4 sequence (O95977 whole entry): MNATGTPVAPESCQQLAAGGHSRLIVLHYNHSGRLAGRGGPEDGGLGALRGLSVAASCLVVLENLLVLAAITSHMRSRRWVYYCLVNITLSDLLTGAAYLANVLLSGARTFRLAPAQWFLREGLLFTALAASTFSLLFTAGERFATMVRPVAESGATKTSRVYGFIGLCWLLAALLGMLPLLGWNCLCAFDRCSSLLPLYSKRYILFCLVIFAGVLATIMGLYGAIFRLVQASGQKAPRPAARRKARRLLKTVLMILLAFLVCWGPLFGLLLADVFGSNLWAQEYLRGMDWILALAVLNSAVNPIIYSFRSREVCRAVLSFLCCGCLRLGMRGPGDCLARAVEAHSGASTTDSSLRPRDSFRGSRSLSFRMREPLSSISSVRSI

[6] = target: Sphingosine 1-phosphate receptor 1 (Homo sapiens, UniProt P21453); assay: Fluorescence-based counterscreen assay for S1P4 agonists: Cell-based dose response high throughput screening assay to identify agonists of the Sphingosine 1-Phosphate Receptor 1 (S1P1). [Related pubchem assays (depositor defined):AID1509, AID1523, AID1801, AID463107, AID463118, AID463119, AID463122, AID463123, AID463129, AID463225, AID504400, AID504460]; format: functional
Sphingosine 1-phosphate receptor 1, sequence (P21453 whole entry): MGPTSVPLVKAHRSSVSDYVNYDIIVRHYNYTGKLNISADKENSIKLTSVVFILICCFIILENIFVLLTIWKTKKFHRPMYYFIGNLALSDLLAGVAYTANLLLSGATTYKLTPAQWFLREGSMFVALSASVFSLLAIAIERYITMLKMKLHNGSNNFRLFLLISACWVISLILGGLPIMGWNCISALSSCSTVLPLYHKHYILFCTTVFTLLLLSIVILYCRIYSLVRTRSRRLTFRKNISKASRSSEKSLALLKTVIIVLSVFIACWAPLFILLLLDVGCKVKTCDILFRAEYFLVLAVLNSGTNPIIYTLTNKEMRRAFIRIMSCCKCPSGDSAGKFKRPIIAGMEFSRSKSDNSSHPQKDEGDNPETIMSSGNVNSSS

[7] = target: T5, G-protein coupled receptor 55 (Homo sapiens, UniProt Q9Y2T6); assay: blockers of GPR55 signalling, imaged – imaging, image-based, counter-screen for GPR35 antagonist project, SAR follow-up (AID 2397); format: functional
T5 sequence (Q9Y2T6 whole entry): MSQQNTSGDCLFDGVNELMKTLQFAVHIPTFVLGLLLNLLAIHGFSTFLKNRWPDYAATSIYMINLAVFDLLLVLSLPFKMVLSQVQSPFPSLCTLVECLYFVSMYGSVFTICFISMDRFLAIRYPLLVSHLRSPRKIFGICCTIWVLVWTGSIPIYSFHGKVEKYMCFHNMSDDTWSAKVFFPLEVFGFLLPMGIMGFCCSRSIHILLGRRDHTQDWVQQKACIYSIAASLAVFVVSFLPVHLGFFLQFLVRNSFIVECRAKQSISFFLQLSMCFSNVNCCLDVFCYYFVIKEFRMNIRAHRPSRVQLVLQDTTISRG

Streptokinase A = target: T6, Streptokinase A (Streptococcus pyogenes serotype M1, UniProt P10520); assay: viability-normalized secreted streptokinase activity reduction – plasminogen activation absorbance, OD405, dose response (AID 1914); format: functional, Streptococcus pyogenes M1 GAS;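 further: secreted streptokinase activity via plasminogen activation per viability signal from cell pellet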
T6 sequence (P10520 whole entry): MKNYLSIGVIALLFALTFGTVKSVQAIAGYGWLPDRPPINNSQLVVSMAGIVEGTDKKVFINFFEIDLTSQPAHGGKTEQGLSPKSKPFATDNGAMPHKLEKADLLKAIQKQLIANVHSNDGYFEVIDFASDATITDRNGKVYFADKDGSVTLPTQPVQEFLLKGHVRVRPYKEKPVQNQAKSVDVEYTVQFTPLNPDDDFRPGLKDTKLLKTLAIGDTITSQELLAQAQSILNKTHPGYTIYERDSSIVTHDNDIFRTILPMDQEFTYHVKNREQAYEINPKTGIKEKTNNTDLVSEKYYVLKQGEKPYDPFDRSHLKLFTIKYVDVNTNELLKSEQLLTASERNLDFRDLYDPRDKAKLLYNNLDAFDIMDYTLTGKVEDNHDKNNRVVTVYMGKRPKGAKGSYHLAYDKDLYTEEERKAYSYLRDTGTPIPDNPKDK

[8] = cAMP pathway inhibition in counterscreen cell line – TR-FRET cAMP detection, counter-screen for MC4R biased antagonist project, dose response (AID 602305); format: functional, cell-based;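 further: U2OS cells stimulated with forskolin near its EC80 as the cAMP inducer; potency is for inhibition of forskolin-stimulated cAMP signaling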
Streptococcus = assay: GAS UMAA2166 growth inhibition – luminescence, BacTiterGlo, counter-screen for streptokinase expression inhibitor project, dose response (AID 1915); format: functional, organism-based;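 further: potency for reduction of bacterial viability or growth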
Melanocortin receptor 4 = Melanocortin receptor 4 (Homo sapiens, UniProt P32245); assay: inhibitors of MC4R cAMP signaling – cell-based, TR-FRET, biased antagonists, dose response (AID 602298); format: functional;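 further: antagonist potency against agonist-stimulated cAMP production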
Melanocortin receptor 4, sequence (P32245 whole entry): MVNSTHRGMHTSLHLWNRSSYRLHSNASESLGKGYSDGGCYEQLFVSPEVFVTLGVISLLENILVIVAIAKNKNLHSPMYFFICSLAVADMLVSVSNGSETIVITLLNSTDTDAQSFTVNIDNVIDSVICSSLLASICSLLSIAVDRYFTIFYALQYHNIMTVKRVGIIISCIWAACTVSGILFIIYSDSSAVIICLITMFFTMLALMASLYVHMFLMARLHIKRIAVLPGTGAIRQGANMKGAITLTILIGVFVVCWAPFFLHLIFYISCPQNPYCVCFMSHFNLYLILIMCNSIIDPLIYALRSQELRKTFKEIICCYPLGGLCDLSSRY

[9] = test system: Streptococcus sp. 'group A'; assay: Streptococcus pyogenes SK(-)GAS viability under kanamycin – luminescence, BacTiterGlo, confirmation, counter-screen for streptokinase expression inhibitor project, dose response (AID 1900); format: functional, organism-based
[10] = target: T5, G-protein coupled receptor 55; assay: SAR analysis of selective Agonists of GPR55 using an Image-Based Assay. [Related pubchem assays (depositor defined):AID1961, AID1965]; format: functional
[11] = target: Dual specificity protein phosphatase 3 (Homo sapiens, UniProt P51452); assay: SAR VHR1 Fluorescent Assay for In Vitro dose response studies Set 2. [Related pubchem assays (depositor defined):AID1654, AID1661, AID1878]; format: functional
Dual specificity protein phosphatase 3, sequence (P51452 whole entry): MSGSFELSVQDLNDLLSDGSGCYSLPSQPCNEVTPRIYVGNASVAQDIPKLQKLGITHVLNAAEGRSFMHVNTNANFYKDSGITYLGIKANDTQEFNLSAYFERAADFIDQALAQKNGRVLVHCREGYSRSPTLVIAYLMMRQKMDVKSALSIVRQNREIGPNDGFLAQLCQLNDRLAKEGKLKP

Cannabinoid receptor 2 [12] = target: T7, Cannabinoid receptor 2 (Homo sapiens, UniProt P34972); assay: SAR analysis of antagonists of the Cannabinoid Receptor 2 using an Image-Based Assay - Set 2. [Related pubchem assays (depositor defined):AID1961, AID1965]; format: functional
T7 sequence (P34972 whole entry): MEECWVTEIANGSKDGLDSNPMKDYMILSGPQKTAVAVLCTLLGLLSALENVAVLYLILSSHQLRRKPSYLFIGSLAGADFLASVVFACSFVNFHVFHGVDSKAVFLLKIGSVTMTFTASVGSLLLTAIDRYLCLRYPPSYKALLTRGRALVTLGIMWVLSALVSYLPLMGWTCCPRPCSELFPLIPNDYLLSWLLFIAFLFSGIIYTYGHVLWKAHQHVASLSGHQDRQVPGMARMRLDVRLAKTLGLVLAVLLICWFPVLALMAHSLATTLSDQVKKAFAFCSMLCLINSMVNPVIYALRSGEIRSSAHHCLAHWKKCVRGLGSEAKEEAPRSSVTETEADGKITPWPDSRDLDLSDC

[13] = target: T5, G-protein coupled receptor 55; assay: selective activators of receptor GPR55 – imaging, U2OS cells, beta-arrestin-GFP redistribution, primary screen (AID 1961); format: functional
[14] = target: T8, Tyrosine-protein phosphatase non-receptor type 7 (Homo sapiens, UniProt P35236); assay: SAR analysis of chemical inhibitors of HePTP using a Fluorescent assay - Set 2. [Related pubchem assays (depositor defined):AID1059, AID1077, AID1661, AID2085, AID521]; format: functional
T8 sequence (P35236 whole entry): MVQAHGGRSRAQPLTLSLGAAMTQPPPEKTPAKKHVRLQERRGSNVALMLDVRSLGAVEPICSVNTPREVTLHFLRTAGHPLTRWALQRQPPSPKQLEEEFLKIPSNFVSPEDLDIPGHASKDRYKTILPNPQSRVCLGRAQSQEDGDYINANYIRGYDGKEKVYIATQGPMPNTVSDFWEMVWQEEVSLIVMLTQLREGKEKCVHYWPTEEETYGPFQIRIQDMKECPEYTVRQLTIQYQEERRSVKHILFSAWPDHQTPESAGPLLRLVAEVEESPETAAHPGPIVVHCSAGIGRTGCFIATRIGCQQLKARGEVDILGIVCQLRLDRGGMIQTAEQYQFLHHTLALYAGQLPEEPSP

Cannabinoid receptor 2 [15] = target: T7, Cannabinoid receptor 2; assay: SAR analysis of agonists of the Cannabinoid Receptor 2 using an Image-Based Assay - Set 2. [Related pubchem assays (depositor defined):AID1961, AID1965]; format: functional
Cannabinoid receptor 1 = Cannabinoid receptor 1 (Homo sapiens, UniProt P21554); assay: SAR analysis of antagonists of the Cannabinoid Receptor 1 using an Image-Based Assay. [Related pubchem assays (depositor defined):AID1961, AID1965]; format: functional
[16] = target: T2, Intestinal-type alkaline phosphatase; assay: inhibition of human intestinal alkaline phosphatase – biochemical, luminescent, uHTS hits, set 2, dose response (AID 488793); format: functional
[17] = target: T1, Intestinal-type alkaline phosphatase; assay: PubChem AID 488875; format: functional
[18] = target: T3, Alkaline phosphatase, tissue-nonspecific isozyme; assay: inhibition of tissue-nonspecific alkaline phosphatase – biochemical, dose response (AID 488882); format: functional
[19] = target: T2, Intestinal-type alkaline phosphatase; assay: Dose Response confirmation of uHTS hits from a small molecule inhibitors of human intestinal alkaline phosphatase via a luminescent assay. [Related pubchem assays (depositor defined):AID2544, AID2574]; format: functional
Cytochrome P450 2D6 = Cytochrome P450 2D6 (Homo sapiens, UniProt P10635);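 further: CYP2D6 member of a cytochrome P450 panel assay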
Cytochrome P450 2D6, sequence (P10635 whole entry): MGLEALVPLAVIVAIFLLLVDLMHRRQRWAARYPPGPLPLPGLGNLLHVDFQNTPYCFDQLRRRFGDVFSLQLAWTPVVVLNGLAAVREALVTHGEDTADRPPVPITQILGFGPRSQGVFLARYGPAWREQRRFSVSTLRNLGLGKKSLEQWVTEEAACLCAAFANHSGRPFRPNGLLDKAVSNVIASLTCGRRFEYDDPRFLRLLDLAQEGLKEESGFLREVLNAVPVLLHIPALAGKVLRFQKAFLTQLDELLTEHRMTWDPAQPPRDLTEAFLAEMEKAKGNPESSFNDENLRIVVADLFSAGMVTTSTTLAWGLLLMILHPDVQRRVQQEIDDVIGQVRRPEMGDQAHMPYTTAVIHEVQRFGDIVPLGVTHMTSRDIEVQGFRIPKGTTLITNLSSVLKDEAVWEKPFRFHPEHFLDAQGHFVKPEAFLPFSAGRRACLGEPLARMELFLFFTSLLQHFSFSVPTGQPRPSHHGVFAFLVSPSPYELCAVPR

Beta Lactamase = Beta Lactamase (Pseudomonas aeruginosa, UniProt Q932Y6); assay: BLA reporter interference, concentration series – BLA reporter cells, FRET fluorescence, artefact control for NOD2-RIPK2 interaction inhibitor project, dose response (AID 651552); format: functional, cell-based
Beta Lactamase, sequence (Q932Y6 whole entry): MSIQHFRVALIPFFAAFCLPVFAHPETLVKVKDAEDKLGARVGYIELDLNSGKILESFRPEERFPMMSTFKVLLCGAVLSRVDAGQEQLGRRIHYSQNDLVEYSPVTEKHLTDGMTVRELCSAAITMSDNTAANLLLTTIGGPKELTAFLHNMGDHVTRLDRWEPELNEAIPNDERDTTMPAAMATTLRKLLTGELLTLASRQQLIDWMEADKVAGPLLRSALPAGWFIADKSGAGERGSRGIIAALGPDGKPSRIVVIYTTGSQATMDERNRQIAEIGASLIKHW

[20] = target: Nuclear receptor ROR-gamma (Homo sapiens, UniProt P51449); assay: LXR, FXR and VP16 reporter activity, cell-based, luciferase reporter, ROR modulator project, late-stage follow-up, panel member RORG (AID 2117)
Nuclear receptor ROR-gamma, sequence (P51449 whole entry): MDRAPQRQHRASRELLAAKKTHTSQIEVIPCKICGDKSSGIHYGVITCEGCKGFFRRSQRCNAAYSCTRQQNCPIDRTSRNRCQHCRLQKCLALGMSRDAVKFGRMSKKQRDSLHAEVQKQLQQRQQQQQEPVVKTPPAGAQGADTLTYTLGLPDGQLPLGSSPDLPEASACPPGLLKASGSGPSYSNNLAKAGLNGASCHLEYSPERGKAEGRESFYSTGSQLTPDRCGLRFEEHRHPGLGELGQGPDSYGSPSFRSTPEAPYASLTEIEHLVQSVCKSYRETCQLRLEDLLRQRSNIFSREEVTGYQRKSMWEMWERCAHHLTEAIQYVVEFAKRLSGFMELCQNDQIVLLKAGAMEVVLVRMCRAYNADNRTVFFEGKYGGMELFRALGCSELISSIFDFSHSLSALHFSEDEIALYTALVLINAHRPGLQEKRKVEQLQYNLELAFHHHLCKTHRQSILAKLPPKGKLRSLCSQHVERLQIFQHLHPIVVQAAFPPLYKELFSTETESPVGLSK

[21] = target: Nuclear receptor ROR-alpha (Homo sapiens, UniProt P35398); assay: LXR, FXR and VP16 reporter activity, cell-based, luciferase reporter, ROR modulator project, late-stage follow-up, panel member RORA (AID 2117)
Nuclear receptor ROR-alpha, sequence (P35398 whole entry, the tested form may be a part): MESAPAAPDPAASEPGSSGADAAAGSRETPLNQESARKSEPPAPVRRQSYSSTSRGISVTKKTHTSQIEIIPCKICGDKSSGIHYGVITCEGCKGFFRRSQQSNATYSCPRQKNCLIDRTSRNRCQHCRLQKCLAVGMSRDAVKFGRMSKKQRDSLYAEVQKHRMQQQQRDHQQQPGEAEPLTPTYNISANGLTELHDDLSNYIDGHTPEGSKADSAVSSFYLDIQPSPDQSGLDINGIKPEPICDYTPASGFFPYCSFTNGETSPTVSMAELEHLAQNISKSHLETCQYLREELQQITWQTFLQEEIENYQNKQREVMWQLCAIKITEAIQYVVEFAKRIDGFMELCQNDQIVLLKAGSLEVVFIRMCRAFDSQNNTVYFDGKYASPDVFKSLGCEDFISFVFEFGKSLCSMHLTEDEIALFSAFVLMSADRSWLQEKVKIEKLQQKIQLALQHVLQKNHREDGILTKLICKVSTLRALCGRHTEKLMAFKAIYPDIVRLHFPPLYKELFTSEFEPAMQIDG

[22] = Fluorescence-based cell-based high throughput dose response assay for inhibitors of the interaction of nucleotide-binding oligomerization domain containing 2 (NOD2) and the receptor-interacting serine-threonine kinase 2 (RIPK2).; format: functional; details: Homo sapiens

T2 sequence (P09923 whole entry): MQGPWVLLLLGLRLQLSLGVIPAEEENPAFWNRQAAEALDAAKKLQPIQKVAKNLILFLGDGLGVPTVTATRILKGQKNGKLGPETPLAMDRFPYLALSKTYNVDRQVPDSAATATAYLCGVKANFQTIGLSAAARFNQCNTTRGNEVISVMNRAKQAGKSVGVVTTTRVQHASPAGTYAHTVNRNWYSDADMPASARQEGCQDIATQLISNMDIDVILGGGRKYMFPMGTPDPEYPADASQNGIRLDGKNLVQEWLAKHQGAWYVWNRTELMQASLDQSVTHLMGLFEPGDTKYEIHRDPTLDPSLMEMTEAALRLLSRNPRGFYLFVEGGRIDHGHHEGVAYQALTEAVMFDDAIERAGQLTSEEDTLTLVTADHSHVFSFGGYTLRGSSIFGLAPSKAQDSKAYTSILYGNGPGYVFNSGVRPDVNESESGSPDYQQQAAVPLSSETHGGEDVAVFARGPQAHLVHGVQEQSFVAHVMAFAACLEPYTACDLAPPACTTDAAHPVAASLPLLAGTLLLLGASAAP
T1 sequence (P24822 whole entry): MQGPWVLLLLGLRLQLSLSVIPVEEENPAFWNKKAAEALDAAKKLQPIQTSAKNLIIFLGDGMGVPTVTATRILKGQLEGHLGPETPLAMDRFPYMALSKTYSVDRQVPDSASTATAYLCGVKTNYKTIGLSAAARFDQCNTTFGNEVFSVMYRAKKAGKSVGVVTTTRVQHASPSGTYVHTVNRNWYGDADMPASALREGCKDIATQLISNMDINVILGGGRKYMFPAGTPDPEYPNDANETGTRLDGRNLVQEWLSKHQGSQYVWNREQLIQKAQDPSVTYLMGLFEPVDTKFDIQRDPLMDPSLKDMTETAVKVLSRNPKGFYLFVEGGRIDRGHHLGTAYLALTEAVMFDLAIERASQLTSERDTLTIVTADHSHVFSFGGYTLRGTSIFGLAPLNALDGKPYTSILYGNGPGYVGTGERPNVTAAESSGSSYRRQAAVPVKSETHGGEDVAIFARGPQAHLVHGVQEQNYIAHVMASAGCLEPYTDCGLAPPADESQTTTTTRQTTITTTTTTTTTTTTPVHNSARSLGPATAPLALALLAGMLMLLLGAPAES

Cc1cccc(-n2ncc3c(NNC(=O)c4ccco4)ncnc32)c1
IC50 [1]: 66.9 µM (active)
EC50 [2]: 7.33 µM (active)
EC50 [3]: 7.58 µM (active)
EC50 [4]: 7.19 µM (active)

O=C(NCc1ccccc1)c1nc[nH]c1C(=O)N[C@@H](Cc1ccccc1)C(=O)OCc1ccccc1
EC50 [5]: 90.2 µM (not active)
EC50 [6]: > 49.8 µM (inactive)

Cc1nc(N2CCC(C)CC2)c2c(C)c(C(=O)Nc3ccccc3C(F)(F)F)sc2n1
IC50 [7]: 6.95 µM (active)
EC50 (Streptokinase A): 6.34 µM (active)
IC50 [8]: > 64.6 µM (inactive)
EC50 (Streptococcus): 41.5 µM (active)
IC50 (Melanocortin receptor 4): > 64.6 µM (inactive)
EC50 [9]: 3.69 µM (active)

COc1ccccc1/C=C/C(=O)NC(=S)Nc1ccc(S(=O)(=O)N(C)c2ccccc2)cc1
EC50 [10]: 0.114 µM (active)
IC50 [11]: > 100 µM (inactive)
IC50 (Cannabinoid receptor 2 [12]): > 32 µM (inactive)
EC50 [13]: < 0.5 µM (active)
IC50 [14]: > 100 µM (inactive)
EC50 (Cannabinoid receptor 2 [15]): > 32 µM (inactive)
IC50 (Cannabinoid receptor 1): > 32 µM (inactive)

O=C1C2C3C=CC(C3)C2C(=O)N1c1n[nH]c(-c2cccnc2)n1 (stereo not drawn)
IC50 [16]: 7.69 µM (active)
EC50 [17]: > 100 µM (inactive)
IC50 [18]: > 100 µM (inactive)
IC50 [19]: 5.18 µM (active)

CC1Cc2ccccc2N1C(=O)CN1C(=O)COc2ccccc21 (stereo not drawn)
AC50 (Cytochrome P450 2D6): inconclusive

O=S(=O)(Nc1ccc(C(O)(C(F)(F)F)C(F)(F)F)cc1)c1ccc(Cl)c2nonc12
IC50 (Beta Lactamase): 41.6 µM (inactive)
IC50 [20]: 2.08 µM (active)
IC50 [21]: 7.28 µM (active)
IC50 [22]: 14.3 µM (inactive)

— ChEMBL document CHEMBL1201862, “PubChem BioAssay data set” (2004)
